Species on record: Rattus norvegicus
Experiment: Open TG-GATES - Regimen: Daily Repeat
Format: toxicity, organism-based, Sprague-Dawley
Set-up: regimen Daily Repeat, gender Male, age 6 weeks
Details: in vivo, po, 0 mg/kg, route gavage, dose level Control; for APTT / Bas / Eos / Fbg / Hb / Ht / Lym / MCH / MCHC / MCV / Mono / Neu / PT / Plat / RBC / Ret / WBC: tissue Blood; for KIDNEY_L / KIDNEY_R / KIDNEY_TOTAL: tissue Kidney; for LIVER: tissue Liver; for A/G / ALP / ALT / AST / BUN / CRE / Ca / Cl / DBIL / GLC / IP / K / LDH / Na / PL / RALB / TBIL / TC / TG / TP / gamma-GTP: tissue Plasma

CCOC(=O)CCC(=O)O[C@H]1[C@H](O[C@@H]2[C@@H](C)[C@H](O[C@H]3C[C@@](C)(OC)[C@@H](O)[C@H](C)O3)[C@@H](C)C(=O)O[C@H](CC)[C@@](C)(O)[C@H](O)[C@@H](C)C(=O)[C@H](C)C[C@@]2(C)O)O[C@H](C)C[C@@H]1N(C)C [ERYTHROMYCIN ETHYLSUCCINATE]
TERMINAL_BW (72 h, time 3 day): 237.5 g | APTT (72 h, time 3 day): 21.3 s | Bas (72 h, time 3 day): 0% | Eos (72 h, time 3 day): 1% | Fbg (72 h, time 3 day): 295.4 mg/dL | Hb (72 h, time 3 day): 13.4 g/dL | Ht (72 h, time 3 day): 39.6% | Lym (72 h, time 3 day): 78.6% | MCH (72 h, time 3 day): 21.3 pg | MCHC (72 h, time 3 day): 33.7% | MCV (72 h, time 3 day): 63 fL | Mono (72 h, time 3 day): 3.4% | Neu (72 h, time 3 day): 16.2% | PT (72 h, time 3 day): 16.3 s | Plat (72 h, time 3 day): 124.3 x10_4/uL | RBC (72 h, time 3 day): 628.8 x10_4/ul | Ret (72 h, time 3 day): 6.2% | WBC (72 h, time 3 day): 96.6 x10_2/uL | KIDNEY_L (72 h, time 3 day): 1.1 g | KIDNEY_R (72 h, time 3 day): 1.1 g | KIDNEY_TOTAL (72 h, time 3 day): 2.1 g | LIVER (72 h, time 3 day): 10.7 g | A/G (72 h, time 3 day): 1.2 | ALP (72 h, time 3 day): 1575.2 IU/L | ALT (72 h, time 3 day): 38.2 IU/L | AST (72 h, time 3 day): 68.6 IU/L | BUN (72 h, time 3 day): 17.8 mg/dL | CRE (72 h, time 3 day): 0.2 mg/dL | Ca (72 h, time 3 day): 10.1 mg/dL | Cl (72 h, time 3 day): 107.6 meq/L | DBIL (72 h, time 3 day): 0 mg/dL | GLC (72 h, time 3 day): 198.2 mg/dL | IP (72 h, time 3 day): 6.6 mg/dL | K (72 h, time 3 day): 4.3 meq/L | LDH (72 h, time 3 day): 181.8 IU/L | Na (72 h, time 3 day): 141 meq/L | PL (72 h, time 3 day): 139.8 mg/dL | RALB (72 h, time 3 day): 2.9 g/dL | TBIL (72 h, time 3 day): 0.016 mg/dL | TC (72 h, time 3 day): 71.4 mg/dL | TG (72 h, time 3 day): 91 mg/dL | TP (72 h, time 3 day): 5.4 g/dL | gamma-GTP (72 h, time 3 day): 1.2 IU/L | TERMINAL_BW ([…], time 7 day): 272.7 g | TERMINAL_BW ([…], time 14 day): 330.3 g | TERMINAL_BW ([…], time 28 day): 372.4 g | APTT ([…], time 7 day): 20.5 s | Bas ([…], time 7 day): 0% | Eos ([…], time 7 day): 1% | Fbg ([…], time 7 day): 307.2 mg/dL | Hb ([…], time 7 day): 14.1 g/dL | Ht ([…], time 7 day): 41.9% | Lym ([…], time 7 day): 78.2% | MCH ([…], time 7 day): 21 pg | MCHC ([…], time 7 day): 33.6% | MCV ([…], time 7 day): 62.4 fL | Mono ([…], time 7 day): 2.4% | Neu ([…], time 7 day): 17.4% | PT ([…], time 7 day): 16.6 s | Plat ([…], time 7 day): 119.4 x10_4/uL | RBC ([…], time 7 day): 673.2 x10_4/ul | Ret ([…], time 7 day): 6.2% | WBC ([…], time 7 day): 121.5 x10_2/uL | APTT ([…], time 14 day): 22.3 s | Bas ([…], time 14 day): 0% | Eos ([…], time 14 day): 1% | Fbg ([…], time 14 day): 317.8 mg/dL | Hb ([…], time 14 day): 13.9 g/dL | Ht ([…], time 14 day): 40.4% | Lym ([…], time 14 day): 80.2% | MCH ([…], time 14 day): 21.2 pg | MCHC ([…], time 14 day): 34.5% | MCV ([…], time 14 day): 61.5 fL | Mono ([…], time 14 day): 2.4% | Neu ([…], time 14 day): 14.8% | PT ([…], time 14 day): 16.3 s | Plat ([…], time 14 day): 104.3 x10_4/uL | RBC ([…], time 14 day): 656.6 x10_4/ul | Ret ([…], time 14 day): 5.2% | WBC ([…], time 14 day): 110.8 x10_2/uL | APTT ([…], time 28 day): 24.4 s | Bas ([…], time 28 day): 0% | Eos ([…], time 28 day): 1% | Fbg ([…], time 28 day): 317.2 mg/dL | Hb ([…], time 28 day): 15.2 g/dL | Ht ([…], time 28 day): 44% | Lym ([…], time 28 day): 81.8% | MCH ([…], time 28 day): 19.4 pg | MCHC ([…], time 28 day): 34.6% | MCV ([…], time 28 day): 56.2 fL | Mono ([…], time 28 day): 2.8% | Neu ([…], time 28 day): 13% | PT ([…], time 28 day): 16.4 s | Plat ([…], time 28 day): 99.6 x10_4/uL | RBC ([…], time 28 day): 783.8 x10_4/ul | Ret ([…], time 28 day): 2.7% | WBC ([…], time 28 day): 109.9 x10_2/uL | KIDNEY_L ([…], time 7 day): 1.1 g | KIDNEY_R ([…], time 7 day): 1.1 g | KIDNEY_TOTAL ([…], time 7 day): 2.2 g | KIDNEY_L ([…], time 14 day): 1.3 g | KIDNEY_R ([…], time 14 day): 1.3 g | KIDNEY_TOTAL ([…], time 14 day): 2.6 g | KIDNEY_L ([…], time 28 day): 1.4 g | KIDNEY_R ([…], time 28 day): 1.4 g | KIDNEY_TOTAL ([…], time 28 day): 2.8 g | LIVER ([…], time 7 day): 12.3 g | LIVER ([…], time 14 day): 14.7 g | LIVER ([…], time 28 day): 14.6 g | A/G ([…], time 7 day): 1.1 | ALP ([…], time 7 day): 1670.4 IU/L | ALT ([…], time 7 day): 43 IU/L | AST ([…], time 7 day): 72.2 IU/L | BUN ([…], time 7 day): 20.4 mg/dL | CRE ([…], time 7 day): 0.2 mg/dL | Ca ([…], time 7 day): 10.7 mg/dL | Cl ([…], time 7 day): 107.6 meq/L | DBIL ([…], time 7 day): 0 mg/dL | GLC ([…], time 7 day): 216.8 mg/dL | IP ([…], time 7 day): 7.3 mg/dL | K ([…], time 7 day): 4.3 meq/L | LDH ([…], time 7 day): 201.8 IU/L | Na ([…], time 7 day): 141.2 meq/L | PL ([…], time 7 day): 155.2 mg/dL | RALB ([…], time 7 day): 2.9 g/dL | TBIL ([…], time 7 day): 0 mg/dL | TC ([…], time 7 day): 70.8 mg/dL | TG ([…], time 7 day): 133.4 mg/dL | TP ([…], time 7 day): 5.6 g/dL | gamma-GTP ([…], time 7 day): 1.4 IU/L | A/G ([…], time 14 day): 1.1 | ALP ([…], time 14 day): 1330.4 IU/L | ALT ([…], time 14 day): 46.6 IU/L | AST ([…], time 14 day): 76 IU/L | BUN ([…], time 14 day): 21 mg/dL | CRE ([…], time 14 day): 0.2 mg/dL | Ca ([…], time 14 day): 10.5 mg/dL | Cl ([…], time 14 day): 105.2 meq/L | DBIL ([…], time 14 day): 0 mg/dL | GLC ([…], time 14 day): 207.2 mg/dL | IP ([…], time 14 day): 7.1 mg/dL | K ([…], time 14 day): 4.5 meq/L | LDH ([…], time 14 day): 208.6 IU/L | Na ([…], time 14 day): 141.4 meq/L | PL ([…], time 14 day): 153.4 mg/dL | RALB ([…], time 14 day): 2.9 g/dL | TBIL ([…], time 14 day): 0 mg/dL | TC ([…], time 14 day): 73 mg/dL | TG ([…], time 14 day): 135.2 mg/dL | TP ([…], time 14 day): 5.7 g/dL | gamma-GTP ([…], time 14 day): 2.2 IU/L | A/G ([…], time 28 day): 1.1 | ALP ([…], time 28 day): 1212.8 IU/L | ALT ([…], time 28 day): 45.8 IU/L | AST ([…], time 28 day): 71.6 IU/L | BUN ([…], time 28 day): 19.6 mg/dL | CRE ([…], time 28 day): 0.2 mg/dL | Ca ([…], time 28 day): 10.4 mg/dL | Cl ([…], time 28 day): 106.6 meq/L | DBIL ([…], time 28 day): 0 mg/dL | GLC ([…], time 28 day): 189.4 mg/dL | IP ([…], time 28 day): 6.2 mg/dL | K ([…], time 28 day): 4.1 meq/L | LDH ([…], time 28 day): 130.6 IU/L | Na ([…], time 28 day): 141 meq/L | PL ([…], time 28 day): 135.8 mg/dL | RALB ([…], time 28 day): 3 g/dL | TBIL ([…], time 28 day): 0.01 mg/dL | TC ([…], time 28 day): 62 mg/dL | TG ([…], time 28 day): 118.4 mg/dL | TP ([…], time 28 day): 5.9 g/dL | gamma-GTP ([…], time 28 day): 2.8 IU/L
